# Data published in US20060142323A1, “Dual binding site acetylcholinesterase inhibitors for the treatment of alzheimer's disease” (priority 2002, published 2006).
# pIC50: −log10 of the molar value. Where two headings read alike, the source gives them in different places.
# What was measured:
# [1] = target: T1, AChE from human erythrocytes (Homo sapiens, UniProt P22303); experiment: AChE inhibition (from human erythrocytes), Ellman method; format: biochemical; details: 10 min preincubation at 30° C., 400 μM acetylthiocholine iodide, pH 8
# T1 construct: 0.02 unit/ml AChE (Sigma Chemical Co. from human erythrocytes); purchased Sigma Chemical Co; host or cells: human erythrocytes
# Protocol: AChE Inhibition (from Human Erythrocytes)
# The method of Ellman et al. (Ellman, G. L.; Courtney, K. D.; Andres, B.; Featherstone, R. M. Biochem. Pharmacol. 1961, 7, 88-95) was followed. The assay solution consisted of 0.1 M phosphate buffer pH 8, 200 μM 5,5′-dithiobis(2-nitrobenzoic acid) (DTNB, Ellan's reagent), 0.02 unit/ml AChE (Sigma Chemical Co. from human erythrocytes), and 400 μM acetylthiocholine iodide as the substrate of the enzymatic reaction. The compounds tested were added to the assay solution and pre incubated with the enzyme for 10 min at 30° C. After that period, the substrate was added. The absorbance changes at 412 nm were recorded for 5 min with a Perkin-Elmer 550 SE UV/VIS spectrometer, the reaction rates were compared, and the percent inhibition due to the presence of test compounds was calculated.
# [2] = target: T2, AChE from bovine erythrocytes (Bos taurus, UniProt P23795); experiment: Acetylcholinesterase (AChE) inhibition (from bovine erythrocytes), Ellman method at 30° C., Digiscan 340T; format: biochemical
# T2 construct: 0.02 units AChE (Sigma Chemical Co. from bovine erythrocytes); purchased Sigma Chemical Co; host or cells: bovine erythrocytes
# T2 sequence (P23795 31-614 isoform P23795-2 limits assumed): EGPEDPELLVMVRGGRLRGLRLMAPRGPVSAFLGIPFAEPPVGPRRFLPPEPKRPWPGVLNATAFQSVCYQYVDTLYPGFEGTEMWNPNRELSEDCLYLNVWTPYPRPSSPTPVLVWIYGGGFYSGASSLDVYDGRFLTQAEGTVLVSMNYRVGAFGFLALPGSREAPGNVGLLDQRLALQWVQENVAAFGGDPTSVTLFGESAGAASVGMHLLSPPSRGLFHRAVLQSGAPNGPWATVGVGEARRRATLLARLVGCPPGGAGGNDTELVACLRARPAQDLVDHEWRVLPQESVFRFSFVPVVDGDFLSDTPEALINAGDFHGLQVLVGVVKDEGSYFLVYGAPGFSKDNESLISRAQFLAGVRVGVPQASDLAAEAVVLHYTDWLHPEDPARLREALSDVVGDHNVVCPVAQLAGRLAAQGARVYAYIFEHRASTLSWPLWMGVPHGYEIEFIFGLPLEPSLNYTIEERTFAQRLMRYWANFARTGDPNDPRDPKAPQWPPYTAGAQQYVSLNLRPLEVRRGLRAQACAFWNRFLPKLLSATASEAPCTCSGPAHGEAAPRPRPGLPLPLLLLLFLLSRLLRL
# Protocol: Acetylcholinesterase (AChE) Inhibition (from Bovine Erythrocytes)
# AChE inhibitory activity was evaluated at 30° C. by the colorimetric method reported by Ellman [Ellman, G. L.; Courtney, K. D.; Andres, B.; Featherstone, R. M. Biochem. Pharmacol. 1961, 7, 88-95]. The assay solution consisted of 0.1 M phosphate buffer pH 8, 0.3 mM 5,5′-dithiobis (2-nitrobenzoic acid) (DTNB, Ellman's reagent), 0.02 units AChE (Sigma Chemical Co. from bovine erythrocytes), and 0.5 mM acetylthiocholine iodide as the substrate of the enzymatic reaction. The compounds tested were added to the assay solution and preincubated with the enzyme for 5 min at 30° C. After that period, the substrate was added. The absorbance changes at 405 nm were recorded for 5 min with a microplate reader Digiscan 340T, the reaction rates were compared, and the percent inhibition due to the presence of test compounds was calculated. The reaction rate was calculated with, at least, triplicate measurements, and the percent inhibition due to the presence of test compound was calculated relative to the compound-free control.
# BuChE from human serum = target: T3, BuChE from human serum (Homo sapiens, UniProt P06276); experiment: Butyrylcholinesterase (BuChE) inhibition (from human serum); format: biochemical
# T3 construct: The assay solution consisted of 0.01 units BuChE from human serum; from tissue; host or cells: human serum
# Protocol: Butyrylcholinetersae (BuChE) Inhibition (from Human Serum)
# BuChE inhibitory activity was evaluated at 30° C. by the colorimetric method reported by Ellman (Ellman, G. L.; Courtney, K. D.; Andres, B.; Featherstone, R. M. Biochem. Pharmacol. 1961, 7, 88-95]. The assay solution consisted of 0.01 units BuChE from human serum, 0.1 M sodium phosphate buffer pH 8, 0.3 mM 5,5′-dithiobis (2-nitrobenzoic acid) (DTNB, Ellman's reagent), and 0.5 mM butylthiocholine iodide as the substrate of the enzymatic reaction. Enzyme activity was determined by measuring the absorbance at 405 nm during 5 minutes with a microplate reader Digiscan 340T. The tested compounds were preincubated with the enzyme for 10 minutes at 30° C. The reaction rate was calculated with, at least, triplicate measurements.
# [3] = test system: human neuroblastoma cell line SH—SY5Y; experiment: Toxicity measurement (LDH) in SH-SY5Y cells; format: cell-based; details: 24 hours exposure
# Protocol: The cytotoxicity effect of the molecules was tested in the human neuroblastoma cell line SH—SY5Y. These cells were cultured in 96-well plates in minimum essential medium, Han's F12 medium, supplemented with 10% fetal bovine serum, 1% glutamine and 1% penicillin/streptomycin, and grown in. a 5% CO2 humidified incubator at 37° C.
# The cells were plated at 10^4 cells for each well, at least, 48 hours before the toxicity measure. Cells were exposed for 24 hours to the compounds at different concentrations (from 10^−5 to 10^−9), quantitative assessment of cell death was made by measurement of the intracellular enzyme lactate dehydrogenase (LDH) (citotoxicity detection kit, Roche). The cuantity of LDH was evaluated in a microplate reader Anthos 2010, at 492 and 620 nm. Controls were taken as 100% viability.
# AChE peripheral site = AChE peripheral site (Homo sapiens, UniProt P22303); experiment: Propidium competition (fluorescence); format: binding; details: 20 μM propidium iodide, AChE incubated at least 6 hours with compound
# Protocol: Fluorescence was measured in a Fluostar optima plate reader (BMG). Measurements were carried out in 100 μl solution volume, in 96-well plates. The buffer used was 1 mM Tris/HCl, pH 8.0. […] AChE was incubated, at least 6 hours, with the molecules at different concentrations. 20 μM propidium iodide was added 10 min before fluorescence measurement.
# [4] = test system: SH—SY5Y cells exposed to β-amyloid fragment 25-35; experiment: Effects on β-amyloid toxicity (fragment 25-35, LDH viability); format: cell-based, human; details: 1 hour pretreatment, Aβ 25-35 at 200 μM, 24 hours
# Protocol: Effects on β-Amiloid Toxicity
# We have tested if some of these molecules interfere with amyloid peptide toxicity. Cells SH—SY5Y were cultured in 96-well plates as toxicity experiments. Cells were pretreated for 1 hour with the compounds at different concentrations (from 10^−5 to 10^−9), immediately neuronal death is induced adding synthetic peptide β-amyloid, fragment 25-35 (A25-35) at 200 μM. 24 hours later cell viability was assessed with the LDH assay; results are reported relative to untreated wells.
# β-amyloid-AChE complex = target: T4, β-amyloid-AChE complex (Homo sapiens, UniProt P22303); experiment: Inhibition of β-amyloid aggregation (AChE-Aβ complex, Congo Red binding); format: biochemical; details: propidium iodide 50 μM, Aβ1-40 0.1 mM, Aβ-AChE 200:1, 48 hours
# T4 construct: purchased Sigma-Aldrich
# Protocol: Inhibition of β-Amyloid Aggregation:
# Stock solutions of Aβ1-40 at 3.5 mM were prepared in DMSO. The amount of peptide used in the assays was 0.1 mM. Human recombinant AChE (Sigma-Aldrich) was used at a molar ratio Aβ-AChE 200:1. For the aggregation studies the peptide was mixed with the appropriate amount of AChE in PBS pH 7.4 and stirred for 48 hours in -a microtiter plate at room temperature. The fibrils obtained were characterized by Congo Red (CR) binding.
# For the inhibition of β-amyloid aggregation, the compounds tested were used at the IC50 defined in the previous paragraph of the biological evaluation. Propidium iodide 50 μM for comparison.
# [5] = bovine erythrocytes AChE, 30° C., 5 min preincubation, read-out: IC50 AchE
# [6] = human serum BuChE, 30° C., 10 min preincubation, read-out: IC50 BuChE
# T3 sequence (P06276 29-602): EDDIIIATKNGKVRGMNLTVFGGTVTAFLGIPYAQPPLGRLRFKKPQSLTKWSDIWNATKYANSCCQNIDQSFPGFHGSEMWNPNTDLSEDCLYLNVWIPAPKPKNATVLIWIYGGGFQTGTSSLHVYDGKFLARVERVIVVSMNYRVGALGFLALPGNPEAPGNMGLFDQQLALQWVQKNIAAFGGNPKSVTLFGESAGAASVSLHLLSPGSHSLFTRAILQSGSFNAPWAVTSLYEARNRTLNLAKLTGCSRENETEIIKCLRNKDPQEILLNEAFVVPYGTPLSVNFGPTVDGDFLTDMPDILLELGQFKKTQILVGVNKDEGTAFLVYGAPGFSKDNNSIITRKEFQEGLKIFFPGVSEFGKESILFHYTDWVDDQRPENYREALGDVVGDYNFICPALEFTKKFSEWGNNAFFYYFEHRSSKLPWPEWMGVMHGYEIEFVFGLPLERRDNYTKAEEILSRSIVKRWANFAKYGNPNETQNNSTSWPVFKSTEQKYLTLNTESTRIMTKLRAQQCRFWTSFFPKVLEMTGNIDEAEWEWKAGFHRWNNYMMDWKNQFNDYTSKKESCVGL
# Sequence of AChE peripheral site (P22303 32-614): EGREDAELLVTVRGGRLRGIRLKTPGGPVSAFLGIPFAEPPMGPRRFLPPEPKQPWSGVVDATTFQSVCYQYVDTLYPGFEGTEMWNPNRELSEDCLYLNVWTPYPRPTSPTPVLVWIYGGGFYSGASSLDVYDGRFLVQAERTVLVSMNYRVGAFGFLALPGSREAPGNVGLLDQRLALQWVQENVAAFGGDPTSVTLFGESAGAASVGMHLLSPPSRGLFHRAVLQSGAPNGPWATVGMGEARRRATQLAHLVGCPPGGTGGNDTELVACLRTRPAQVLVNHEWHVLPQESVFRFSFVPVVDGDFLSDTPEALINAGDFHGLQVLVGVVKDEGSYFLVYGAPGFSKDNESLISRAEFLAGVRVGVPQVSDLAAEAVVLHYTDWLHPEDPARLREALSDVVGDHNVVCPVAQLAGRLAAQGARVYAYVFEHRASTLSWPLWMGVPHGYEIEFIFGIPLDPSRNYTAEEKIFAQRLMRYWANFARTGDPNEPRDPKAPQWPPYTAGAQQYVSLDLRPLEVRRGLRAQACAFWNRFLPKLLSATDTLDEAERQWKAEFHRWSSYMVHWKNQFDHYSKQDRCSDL
# T1 sequence (P22303 32-617 isoform P22303-2 limits assumed): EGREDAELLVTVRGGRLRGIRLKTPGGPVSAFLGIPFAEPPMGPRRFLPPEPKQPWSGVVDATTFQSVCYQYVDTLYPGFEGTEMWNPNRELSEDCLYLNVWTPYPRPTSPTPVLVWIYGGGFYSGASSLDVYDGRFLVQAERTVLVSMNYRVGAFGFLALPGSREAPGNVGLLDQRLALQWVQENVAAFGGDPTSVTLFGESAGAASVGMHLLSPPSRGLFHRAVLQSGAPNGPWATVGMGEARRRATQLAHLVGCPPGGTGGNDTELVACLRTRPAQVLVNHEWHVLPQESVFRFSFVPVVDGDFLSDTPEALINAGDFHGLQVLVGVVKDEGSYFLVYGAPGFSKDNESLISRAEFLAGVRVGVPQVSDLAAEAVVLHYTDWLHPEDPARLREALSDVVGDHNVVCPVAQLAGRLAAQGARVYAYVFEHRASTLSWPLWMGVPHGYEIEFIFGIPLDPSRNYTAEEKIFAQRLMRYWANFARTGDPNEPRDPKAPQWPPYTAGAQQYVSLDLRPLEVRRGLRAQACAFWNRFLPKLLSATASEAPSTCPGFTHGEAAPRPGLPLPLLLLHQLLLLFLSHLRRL
# T4 sequence (P22303 32-614, one chain of several): as the sequence (P22303 32-614) above
structure (smiles),measurement,setting,value
"COc1cc2c(cc1OC)C(=O)C(CNCCCCCCNc1c3c(nc4ccccc14)CCCC3)C2 (stereo not shown) [Compound 2, 5,6-Dimethoxy-2-{[6-(1,2,3,4-tetrahydro-acridin-9-ylamino)-hexylamino]-methyl}-indan-1-one]",pIC50,[1],7.00
"O=C1c2ccccc2C(=O)N1CCCCCCCNc1c2c(nc3ccccc13)CCCC2 [Compound 4, 2-[7-(1,2,3,4-Tetrahydro-acridin-9-ylamino)-heptyl]-isoindole-1,3-dione]",pIC50,[2]; [5],5.52
same,pIC50,BuChE from human serum; [6],8.00
same,Toxicity,[3],>100 µM
same,Propidium competition,AChE peripheral site,10 µM
"O=C1c2ccccc2C(=O)N1CCCCCCCCNc1c2c(nc3ccccc13)CCCC2 [Compound 5, 2-[8-(1,2,3,4-Tetrahydro-acridin-9-ylamino)-octyl]-isoindole-1,3-dione]",pIC50,[2]; [5],7.05
same,pIC50,BuChE from human serum; [6],7.52
same,Toxicity,[3],5 µM
same,Propidium competition,AChE peripheral site,>100 µM
"O=C1c2ccccc2C(=O)N1CCCCCCNc1c2ccccc2nc2ccccc12 [Compound 6, 2-[6-(Acridin-9-ylamino)-hexyl]-isoindole-1,3-dione]",pIC50,[2]; [5],6.05
same,pIC50,BuChE from human serum; [6],8.10
same,Toxicity,[3],>100 µM
same,Propidium competition,AChE peripheral site,10 µM
"O=C1c2ccccc2C(=O)N1CCCCCCCCNc1c2ccccc2nc2ccccc12 [Compound 8, 2-[8-(Acridin-9-ylamino)-octyl]-isoindole-1,3-dione]",pIC50,[2]; [5],6.00
same,pIC50,BuChE from human serum; [6],6.00
same,Toxicity,[3],100 µM
same,Propidium competition,AChE peripheral site,>100 µM
"O=C1c2ccccc2C(=O)N1CCCCCCCCCNc1c2ccccc2nc2ccccc12 [Compound 9, 2-[9-(Acridin-9-ylamino)-nonyl]-isoindole-1,3-dione]",pIC50,[2]; [5],8.70
same,pIC50,BuChE from human serum; [6],7.05
same,Toxicity,[3],>100 µM
same,Propidium competition,AChE peripheral site,1 µM
"O=C(CN1C(=O)c2ccccc2C1=O)NCCCCCCCNc1c2c(nc3cc(Cl)ccc13)CCCC2 [Compound 10, N-[7-(6-Chloro-1,2,3,4-tetrahydro-acridin-9-ylamino)-heptyl]-2-(1,3-dioxo-1,3-dihydro-isoindol-2-yl)-acetamide]",pIC50,[2]; [5],7.70
same,pIC50,BuChE from human serum; [6],6.19
same,Toxicity,[3],>100 µM
same,Propidium competition,AChE peripheral site,10 µM
"CN(CCCNC(=O)CN1C(=O)c2ccccc2C1=O)CCCNc1c2c(nc3cc(Cl)ccc13)CCCC2 [Compound 11, N-(3-{[3-(6-Chloro-1,2,3,4-tetrahydro-acridin-9-ylamino)-propyl]-methyl-amino}-propyl)-2-(1,3-dioxo-1,3-dihydro-isoindol-2-yl)-acetamide]",pIC50,[2]; [5],8.52
same,pIC50,BuChE from human serum; [6],7.12
same,Toxicity,[3],>100 µM
same,Propidium competition,AChE peripheral site,10 µM
"O=C(CN1C(=O)c2ccccc2C1=O)NCCCCCCNc1c2c(nc3cc(Cl)ccc13)CCCC2 [Compound 12, N-[6-(6-Chloro-1,2,3,4-tetrahydro-acridin-9-ylamino)-hexyl]-2-(1,3-dioxo-1,3-dihydro-isoindol-2-yl)-acetamide]",pIC50,[2]; [5],8.00
same,pIC50,BuChE from human serum; [6],6.70
same,Toxicity,[3],>100 µM
same,Propidium competition,AChE peripheral site,100 µM
"CCn1c(=NCCCCCCCCNc2c3c(nc4ccccc24)CCCC3)sn(C(C)C)c1=O [Compound 17, 4-Ethyl-2-isopropyl-5-[8-(1,2,3,4-tetrahydro-acridin-9-ylamino)-octylimino]-[1,2,4]thiadiazolidin-3-one]",pIC50,[2]; [5],6.70
same,pIC50,BuChE from human serum; [6],8.00
same,Toxicity,[3],>100 µM
same,Propidium competition,AChE peripheral site,0.1 µM
"CCn1c(=NCCCCCCNc2c3c(nc4ccccc24)CCCC3)sn(C(C)C)c1=O [Compound 18, 4-Ethyl-2-isopropyl-5-[6-(1,2,3,4-tetrahydro-acridin-9-ylamino)-hexyl-imino]-[1,2,4]thiadiazolidin-3-one]",pIC50,[2],5.65
same,pIC50,BuChE from human serum,6.00
same,Toxicity,[3],>10 µM
same,Propidium competition,AChE peripheral site,>100 µM
CN(CCCNc1c2c(nc3cc(Cl)ccc13)CCCC2)CCCNc1c2c(nc3cc(Cl)ccc13)CCCC2 [Compound 19],pIC50,[2]; [5],10.00
same,pIC50,BuChE from human serum; [6],8.82
same,Toxicity,[3],10 µM
same,Propidium competition,AChE peripheral site,10 µM
"Clc1ccc2c(NCCCCCCCNc3c4ccccc4nc4ccccc34)c3c(nc2c1)CCCC3 [Compound 23, N-Acridin-9-yl-N′-(6-chloro-1,2,3,4-tetrahydro-acridin-9-yl)-heptane-1,7-diamine]",pIC50,[2]; [5],9.40
same,pIC50,BuChE from human serum; [6],7.70
same,Toxicity,[3],0.5 µM
same,Propidium competition,AChE peripheral site,1 µM
same,inhibition of Aβ(25-35) toxicity,[4],1 µM
"Clc1ccc2c(NCCCCCCCCNc3c4ccccc4nc4ccccc34)c3c(nc2c1)CCCC3 [Compound 24, N-Acridin-9-yl-N′-(6-chloro-1,2,3,4-tetrahydro-acridin-9-yl)-octane-1,8-diamine]",pIC50,[2]; [5],9.00
same,pIC50,BuChE from human serum; [6],7.46
same,Toxicity,[3],5 µM
same,Propidium competition,AChE peripheral site,10 µM
"CC[N+](C)(CC)CCC[n+]1c(-c2ccccc2)c2cc(N)ccc2c2ccc(N)cc21 [propidium, Propidium iodide, reference compound]",reduction of the β-amyloid-AChE complex aggregation,β-amyloid-AChE complex,18.1%
